The values below come from patent US20240254095A1, “NMDA Receptor Antagonist and Use Thereof” (priority 2021, published 2024).

This assay deals with T1, human NMDA receptors GluN1 and GluN2A subunits (GluN2A-containing NMDAR) (Homo sapiens, UniProt Q05586+Q12879).
T1 construct: expressed in transfected cells; host or cells: HEK293 cells, transient liposome transfection of TRE-GluN1-GluN2A, tTA and pCAG-EGFP
Nature of the assay: cell-based. On the procedure: On the day before transfection, HEK293 cells were seeded in a 24-well plate with a 10 mm glass sheet, which was coated with polylysine in advance to increase the adhesion capacity of the cells. The plate was added with DMEM medium containing 10% FBS and incubated at 37° C., in 5% CO2 incubator. When the cell fusion reached 60%-70% after 18-24 hours, the plasmid cDNAs containing TRE-GluN1-GluN2A of human GluN1 and GluN2A, tTA, and pCAG-EGFP were transfected into HEK293 by liposome transfection (TRE-GluN1-GluN2A:tTA:pCAG-EGFP is 0.2 μg:0.2 μg:0.02 μg). Before transfection, anew DMEM medium was changed and added with 1 μg/mL Dox (doxycycline) to induce stable expression in the medium, and added with 100 μM D-APV and 10 mM MgCl2 to avoid cell excitatory toxicity caused by NMDAR overexpression. Cells with green fluorescence were selected for electrophysiological recording after transfection for about 24 h.
A glass plate seeded with HEK293 cells was placed in a recording bath and perfused with the extracellular fluid at a rate of 4 mL/min (NaCl 140 mM, KCl 2.8 mM, HEPES 10 mM, CaCl2 1 mM, glycine 0.1 mM, pH 7.2). The channels of the ALA-VC^3 eight-channel pressure perfusion system were filled with extracellular fluid for washing, extracellular fluid containing glutamic acid (100 μM), and extracellular fluid containing glutamic acid and compound to be tested, respectively, with a drop rate of about 1 drop/sec and 10 μL/drop. HEK293 cells with moderate green fluorescence intensity and good adhesion were selected under a fluorescence microscope for recording. The microglass tube of the perfusion system was placed about ten cells away from the cells to be recorded, and the drug was sprayed to the cell surface under the pressure of air (0.02 MPa). The glass electrode was prepared by drawing with a microelectrode drawing instrument with a resistance of 4-6 MΩ and filled with electrode liquid (CsCl 125 mM, HEPES 10 mM, EGTA 11 mM). The microelectrode manipulator was used to slowly push the glass electrode towards the cells. The electrode was attached to the cell membranes and applied with negative pressure, so that a high-resistance seal of more than 1 GΩ was formed between the electrode tip and the cell membrane, and then negative pressure was given to suck through the cell membrane to form a whole-cell recording mode. After the formation of whole-cell recording mode, the cell membrane potential was clamped at −70 mV. The extracellular fluid containing 100 μM glutamic acid, the extracellular fluid containing 100 μM glutamic acid and the compound to be tested, and the extracellular fluid were sprayed to the cell membrane surface sequentially through the perfusion system for 10 s, 20 s, and 10 s to record the NMDA receptor-mediated current and evaluate the inhibitory effect of the compound on GluN2A-containing NMDAR. The experimental process was controlled by pCLAMP 10.6, and the Digidata 1440A digital-to-analog converter was used to complete the generation of stimulus signal and the acquisition of feedback signal.
The ordinate in the figure is the normalized current ratio, which represents the ratio of the current mediated by NMDAR after administration of ketamine and the compound at a concentration of 10 μM to the current mediated by NMDAR before administration. […] Ketamine was used as a positive control.
The inhibitory percentages of the compound according to the present disclosure on NMDAR-mediated current=[…]/NMDAR mediated-current before administration*100%.

The mark [1] stands for this setting: NMDAR-mediated current, HEK293 cells expressing human GluN1/GluN2A, 100 μM glutamic acid, clamped at −70 mV, compound 10 μM, read-out: current inhibitory percentages.

Structures can show the parent of a compound that is named as a salt. Where two headings read alike, the source gives them in different places.

T1 sequence (Q12879 23-1464, other chains not shown): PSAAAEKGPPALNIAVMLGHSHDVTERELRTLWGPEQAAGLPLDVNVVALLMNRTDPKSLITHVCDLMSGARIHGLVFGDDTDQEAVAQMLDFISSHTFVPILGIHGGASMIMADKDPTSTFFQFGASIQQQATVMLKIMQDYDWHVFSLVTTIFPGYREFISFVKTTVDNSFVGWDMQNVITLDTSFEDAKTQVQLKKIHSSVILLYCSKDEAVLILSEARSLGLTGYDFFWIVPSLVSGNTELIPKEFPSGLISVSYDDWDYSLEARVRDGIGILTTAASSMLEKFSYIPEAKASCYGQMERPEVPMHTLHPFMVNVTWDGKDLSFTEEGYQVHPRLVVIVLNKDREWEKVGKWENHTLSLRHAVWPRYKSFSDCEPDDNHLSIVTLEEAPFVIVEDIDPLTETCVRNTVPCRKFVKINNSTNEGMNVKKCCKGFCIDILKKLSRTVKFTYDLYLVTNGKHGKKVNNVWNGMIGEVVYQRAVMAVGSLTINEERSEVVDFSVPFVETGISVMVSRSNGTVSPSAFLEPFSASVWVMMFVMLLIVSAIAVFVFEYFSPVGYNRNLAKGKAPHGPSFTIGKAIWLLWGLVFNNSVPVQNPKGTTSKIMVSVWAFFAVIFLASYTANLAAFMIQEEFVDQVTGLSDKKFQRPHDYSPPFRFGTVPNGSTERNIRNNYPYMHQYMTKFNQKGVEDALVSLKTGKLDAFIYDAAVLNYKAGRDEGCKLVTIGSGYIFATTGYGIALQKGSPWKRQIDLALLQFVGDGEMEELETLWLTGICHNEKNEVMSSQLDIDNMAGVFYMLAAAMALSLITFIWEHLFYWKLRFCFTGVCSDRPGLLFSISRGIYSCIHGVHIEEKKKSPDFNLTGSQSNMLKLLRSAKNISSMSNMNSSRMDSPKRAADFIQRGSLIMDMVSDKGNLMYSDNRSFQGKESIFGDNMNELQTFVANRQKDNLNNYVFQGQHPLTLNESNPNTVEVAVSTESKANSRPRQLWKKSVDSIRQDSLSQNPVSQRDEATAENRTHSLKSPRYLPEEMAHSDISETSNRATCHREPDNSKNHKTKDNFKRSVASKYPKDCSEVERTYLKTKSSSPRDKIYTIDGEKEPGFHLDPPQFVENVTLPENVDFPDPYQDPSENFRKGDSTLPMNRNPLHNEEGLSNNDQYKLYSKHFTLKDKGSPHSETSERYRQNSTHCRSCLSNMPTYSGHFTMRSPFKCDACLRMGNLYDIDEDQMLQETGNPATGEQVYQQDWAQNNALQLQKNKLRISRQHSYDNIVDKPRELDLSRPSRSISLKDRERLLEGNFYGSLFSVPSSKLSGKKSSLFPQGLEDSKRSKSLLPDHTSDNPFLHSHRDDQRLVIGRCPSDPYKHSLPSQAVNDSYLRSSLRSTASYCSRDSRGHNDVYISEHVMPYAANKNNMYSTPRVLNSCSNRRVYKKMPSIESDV

As for `c1ccc(C23CCCCC2OCCN3)cc1` (stereo not shown) [Compound 1, 4a-phenyloctahydro-2H-benzo[b][1,4]oxazine hydrochloride], under setting [1], the inhibition at 10 µM came out at 115%.

Consider `COc1ccccc1C12CCCCC1OCCN2` (stereo not shown) [Compound 2, 4a-(2-methoxyphenyl)octahydro-2H-benzo[b][1,4]oxazine hydrochloride], for which the inhibition at 10 µM under setting [1] amounted to 56%.

As for `Fc1cccc(C23CCCCC2OCCN3)c1` (stereo not shown) [Compound 3, 4a-(3-fluorophenyl)octahydro-2H-benzo[b][1,4]oxazine hydrochloride], the inhibition at 10 µM under setting [1] was determined as 21.2%.

As for `Fc1ccc(C23CCCCC2OCCN3)cc1` (stereo not shown) [Compound 4, 4a-(4-fluorophenyl)octahydro-2H-benzo[b][1,4]oxazine formate], the inhibition at 10 µM under setting [1] was found to be 83.7%.

For `Fc1cccc(C23CCCCC2OCCN3)c1F` (stereo not shown) [Compound 5, 4a-(2,3-difluorophenyl)octahydro-2H-benzo[b][1,4]oxazine formate], under setting [1], the inhibition at 10 µM was 54.5%.

On to `CC1CCC2OCCNC2(c2ccccc2)C1` (stereo not shown) [Compound 7, 6-methyl-4a-phenyloctahydro-2H-benzo[b][1,4]oxazine formate], for which the inhibition at 10 µM under setting [1] was 86.4%.

Turning to `CCC1CCC2OCCNC2(c2ccccc2)C1` (stereo not shown) [Compound 8, 6-ethyl-4a-phenyloctahydro-2H-benzo[b][1,4]oxazine formate], under setting [1], the inhibition at 10 µM was determined as 28.9%.

Consider `Cc1cccc(C23CCCCC2OCCN3)c1` (stereo not shown) [Compound 10, 4a-(3-methylphenyl)octahydro-2H-benzo[b][1,4]oxazine formate], for which the inhibition at 10 µM under setting [1] came out at 98.3%.

As to `Cc1ccccc1C12CCCCC1OCCN2` (stereo not shown) [Compound 12, 4a-(2-methylphenyl)octahydro-2H-benzo[b][1,4]oxazine formate], the inhibition at 10 µM under setting [1] amounted to 33.7%.

With `Cc1ccc(C23CCCCC2OCCN3)cc1` (stereo not shown) [Compound 14, 4a-(4-methylphenyl)octahydro-2H-benzo[b][1,4]oxazine formate], the inhibition at 10 µM under setting [1] was determined as 45.2%.

With `CC1CCCC2(c3ccccc3)NCCOC12` (stereo not shown) [Compound 16, 8-methyl-4a-phenyloctahydro-2H-benzo[b][1,4]oxazine formate], the inhibition at 10 µM under setting [1] was 107%.

As to `CC1CCCC2OCCNC12c1ccccc1` (stereo not shown) [Compound 17, 5-methyl-4a-phenyloctahydro-2H-benzo[b][1,4]oxazine formate], under setting [1], the inhibition at 10 µM was determined as 86.6%.

For `CC1CCC2(c3ccccc3)NCCOC2C1` (stereo not shown) [Compound 18, 7-methyl-4a-phenyloctahydro-2H-benzo[b][1,4]oxazine formate], the inhibition at 10 µM under setting [1] stood at 84.4%.

Regarding `CN1CCOC2CCCCC21c1ccccc1` (stereo not shown) [Compound 19, 4-methyl-4a-phenyloctahydro-2H-benzo[b][1,4]oxazine hydrochloride], the inhibition at 10 µM under setting [1] turned out to be 17.8%.

As for `CC1(C)CNC2(c3ccccc3)CCCCC2OC1.Cl` (stereo not shown) [Compound 20, 3,3-dimethyl-5a-phenyldecahydrobenzo[b][1,4]olanzapine hydrochloride], the current inhibitory percentages amounted to 64.86%.

For the compound `COc1cccc(C23CCCCC2OCCN3)c1` (stereo not shown) [Compound 21, 4a-(3-methoxyphenyl)octahydro-2H-benzo[b][1,4]oxazine hydrochloride], the inhibition at 10 µM under setting [1] came out at 71.5%.

Consider `FC(F)(F)Oc1cccc(C23CCCCC2OCCN3)c1` (stereo not shown) [Compound 22, 4a-(3-(trifluoromethoxy)phenyl)octahydro-2H-benzo[b][1,4]oxazine hydrochloride], for which, under setting [1], the inhibition at 10 µM was determined as 45.8%.

On to `FC(F)(F)c1ccc(C23CCCCC2OCCN3)cc1` (stereo not shown) [Compound 23, 4a-(4-(trifluoromethyl)phenyl)octahydro-2H-benzo[b][1,4]oxazine hydrochloride], for which the inhibition at 10 µM under setting [1] turned out to be 9.25%.

In the case of `Cc1cccc(C)c1C12CCCCC1OCCN2` (stereo not shown) [Compound 24, 4a-(2,6-dimethylphenyl)octahydro-2H-benzo[b][1,4]oxazine hydrochloride], the inhibition at 10 µM under setting [1] turned out to be 73.7%.

As to `CC(C)(C)c1ccc(C23CCCCC2OCCN3)cc1` (stereo not shown) [Compound 25, 4a-(4-(tertbutyl)phenyl)octahydro-2H-benzo[b][1,4]oxazine hydrochloride], the inhibition at 10 µM under setting [1] turned out to be 11.2%.

Regarding `Clc1cccc(C23CCCCC2OCCN3)c1Cl` (stereo not shown) [Compound 26, 4a-(2,3-dichlorophenyl)octahydro-2H-benzo[b][1,4]oxazine hydrochloride], the inhibition at 10 µM under setting [1] was found to be 92%.

As for `CC(C)c1ccccc1C12CCCCC1OCCN2` (stereo not shown) [Compound 27, 4a-(2-isopropylphenyl)octahydro-2H-benzo[b][1,4]oxazine hydrochloride], under setting [1], the inhibition at 10 µM was found to be 85.6%.

Turning to `Cc1ccc(C)c(C23CCCCC2OCCN3)c1` (stereo not shown) [Compound 28, 4a-(2,5-dimethylphenyl)octahydro-2H-benzo[b][1,4]oxazine hydrochloride], under setting [1], the inhibition at 10 µM stood at 87.8%.

With `Fc1cccc(C23CCCCC2OCCN3)c1Cl` (stereo not shown) [Compound 29, 4a-(2-chloro-3-fluorophenyl)octahydro-2H-benzo[b][1,4]oxazine hydrochloride], the inhibition at 10 µM under setting [1] amounted to 85.7%.

With `Fc1ccc(C23CCCCC2OCCN3)cc1F` (stereo not shown) [Compound 30, 4a-(3,4-difluorophenyl)octahydro-2H-benzo[b][1,4]oxazine hydrochloride], the inhibition at 10 µM under setting [1] was 86.6%.

For the compound `CC1(C)CCC2OCCNC2(c2ccccc2)C1` (stereo not shown) [Compound 31, 6,6-dimethyl-4a-phenyloctahydro-2H-benzo[b][1,4]oxazine hydrochloride], the inhibition at 10 µM (HEK293, read-out: current inhibitory percentages) is 71.6%.

Regarding `Fc1ccc(Cl)c(C23CCCCC2OCCN3)c1` (stereo not shown) [Compound 32, 4a-(2-chloro-5-fluorophenyl)octahydro-2H-benzo[b][1,4]oxazine hydrochloride], the inhibition at 10 µM under setting [1] is 102%.

With `CCOc1cccc(C23CCCCC2OCCN3)c1` (stereo not shown) [Compound 33, 4a-(3-ethoxyphenyl)octahydro-2H-benzo[b][1,4]oxazine hydrochloride], the inhibition at 10 µM under setting [1] was 76.4%.

Take `COc1ccc(C23CCCCC2OCCN3)c(Cl)c1` (stereo not shown) [Compound 34, 4a-(2-chloro-4-methoxyphenyl)octahydro-2H-benzo[b][1,4]oxazine hydrochloride]: under setting [1], the inhibition at 10 µM amounted to 48.6%.

On to `Fc1cccc(Cl)c1C12CCCCC1OCCN2` (stereo not shown) [Compound 36, 4a-(2-chloro-6-fluorophenyl)octahydro-2H-benzo[b][1,4]oxazine hydrochloride], for which the inhibition at 10 µM under setting [1] came out at 42.5%.

Regarding `Cc1cscc1[C@]12CCCC[C@H]1OCCN2` [Compound 40, (4aR,8aR)-4a-(4-methyl-3-thiophenyl)octahydro-2H-benzo[b][1,4]oxazine hydrochloride], the inhibition at 10 µM under setting [1] was 89.3%.
